Measurements from patent US9000025B2, “Autotaxin inhibitors and uses thereof” (Amira Pharmaceuticals, Inc., priority 2010, dated 2015).

Target: T1, autotaxin (ATX) (Homo sapiens, UniProt Q13822)
T1 construct: conditioned medium from the human melanoma cell line, MDA-MB-4355, which endogenously expresses autotaxin; host or cells: MDA-MB-435S human melanoma cells; serum-free conditioned medium, concentrated 20-fold
Test: Native Autotaxin Choline Release Assay
Type: biochemical
Details: autotaxin in conditioned medium from human melanoma cell line; choline released from LPC; read-out: MDA-MB-435S Assay IC50
Protocol: ATX activity is determined by measuring the amount of choline realeased from the substrate, lyosphophatidylcholine (LPC). […] After reaching confluency, the cells are washed twice with phosphate-buffered saline (PBS) then cultured for 48 hours in phenol-red free, serum-free DMEM containing sodium pyruvate. […] 100 μl of a color mix which contains 4.5 mM 4-aminoantipyrine, 2.7 mM N-ethyl-N-(2-hydroxy-3-sulfopropyl)-m-toluidine, 21 units/ml horseradish peroxidase and 3 units/ml choline oxidase in 50 mM Tris, pH 8, 4.5 mM MgCl2 is added and the incubation continued at 37° C. for 10 minutes before reading the absorbance at 555 nm. The concentration of released choline in the sample is determined from a choline standard curve and is equal to the concentration of LPA produced.

`Cc1[nH]c2ccccc2c1Sc1cccc(CC(=O)O)c1` [Compound 1-1, [3-(2-Methyl-1H-indol-3-ylsulfanyl)-phenyl]-acetic acid] and `Cc1[nH]c2cc(F)ccc2c1Sc1cccc(CC(=O)O)c1` [Compound 1-2, [3-(6-Fluoro-2-methyl-1H-indol-3-ylsulfanyl)-phenyl]-acetic acid] cannot be ordered by IC50: over 1000 nM for the first, over 1000 nM for the second.

`COc1ccc2c(Sc3cccc(CC(=O)O)c3)c(C)[nH]c2c1` [Compound 1-3, [3-(6-Methoxy-2-methyl-1H-indol-3-ylsulfanyl)-phenyl]-acetic acid] and `Cc1c(Sc2cccc(CC(=O)O)c2)c2ccc(Cl)cc2n1C` [Compound 1-5, [3-(6-Chloro-1,2-dimethyl-1H-indol-3-ylsulfanyl)-phenyl]-acetic acid] cannot be ordered by IC50: over 1000 nM for the first, over 1000 nM for the second.

`Cc1c(Sc2cccc(CC(=O)O)c2)c2ccccc2n1C` [Compound 1-4, [3-(1,2-Dimethyl-1H-indol-3-ylsulfanyl)-phenyl]-acetic acid] and `Cc1c(Sc2cccc(CC(=O)O)c2)c2ccccc2n1Cc1ccccc1` [Compound 1-9, [3-(1-Benzyl-2-methyl-1H-indol-3-ylsulfanyl)-phenyl]-acetic acid] cannot be ordered by IC50: over 1000 nM for the first, over 1000 nM for the second.

Compared with `Cc1c(Sc2cccc(C(=O)O)c2)c2ccc(Cl)cc2n1C` [Compound 1-6, 3-(6-Chloro-1,2-dimethyl-1H-indol-3-ylsulfanyl)-benzoic acid], `Cc1c(Sc2cccc(C(=O)O)c2)c2ccc(Cl)cc2n1-c1cnn(C)c1` [Compound 1-39, 3-[6-Chloro-2-methyl-1-(1-methyl-1H-pyrazol-4-yl)-1H-indol-3-ylsulfanyl]-benzoic acid] is lower in IC50: over 1000 nM for the first, under 300 nM for the second.

First: Cc1c(Sc2cccc(CC(=O)O)c2)c2ccc(Cl)cc2n1CC(C)C [Compound 1-7, [3-(6-Chloro-1-isobutyl-2-methyl-1H-indol-3-ylsulfanyl)-phenyl]-acetic acid]
Second: COCCn1c(C)c(Sc2cccc(CC(=O)O)c2)c2ccc(Cl)cc21 [Compound 1-8, {3-[6-Chloro-1-(2-methoxy-ethyl)-2-methyl-1H-indol-3-ylsulfanyl]-phenyl}-acetic acid]
The IC50 of the first is higher: over 1000 nM for the first, 300 to 1000 nM for the second.

`Cc1c(Sc2cccc(C(=O)O)c2)c2ccc(Br)cc2n1Cc1ccccc1` [Compound 1-10, 3-(1-Benzyl-6-bromo-2-methyl-1H-indol-3-ylsulfanyl)-benzoic acid] and `Cc1c(Sc2cccc(C(=O)O)c2)c2ccc(Cl)cc2n1Cc1ccccc1` [Compound 1-15, 3-(1-Benzyl-6-chloro-2-methyl-1H-indol-3-ylsulfanyl)-benzoic acid] fall in the same range of IC50: 300 to 1000 nM for the first, 300 to 1000 nM for the second.

`Cc1c(Sc2cccc(C(=O)O)c2)c2ccc(-c3ccccc3)cc2n1Cc1ccccc1` [Compound 1-11, 3-(1-Benzyl-2-methyl-6-phenyl-1H-indol-3-ylsulfanyl)-benzoic acid] and `Cc1c(Sc2cccc(C(=O)O)c2)c2ccc(-c3cccnc3)cc2n1Cc1ccccc1` [Compound 1-12, 3-(1-Benzyl-2-methyl-6-pyridin-3-yl-1H-indol-3-ylsulfanyl)-benzoic acid] cannot be ordered by IC50: over 1000 nM for the first, over 1000 nM for the second.

`Cc1c(Sc2cccc(C(=O)O)c2)c2ccc(Cc3ccccc3)cc2n1Cc1ccccc1` [Compound 1-13, 3-(1,6-Dibenzyl-2-methyl-1H-indol-3-ylsulfanyl)-benzoic acid] and `Cc1c(Sc2cccc(C(=O)O)c2)c2ccc(Cl)cc2n1Cc1ccc2ccccc2c1` [Compound 1-20, 3-(6-Chloro-2-methyl-1-naphthalen-2-ylmethyl-1H-indol-3-ylsulfanyl)-benzoic acid] cannot be ordered by IC50: over 1000 nM for the first, over 1000 nM for the second.

`Cc1c(Sc2cccc(CC(=O)O)c2)c2ccc(Cl)cc2n1Cc1ccccc1` [Compound 1-14, [3-(1-Benzyl-6-chloro-2-methyl-1H-indol-3-ylsulfanyl)-phenyl]-acetic acid] and `Cc1c(Sc2cccc(CCC(=O)O)c2)c2ccc(Cl)cc2n1Cc1ccccc1` [Compound 1-17, 3-[3-(1-Benzyl-6-chloro-2-methyl-1H-indol-3-ylsulfanyl)-phenyl]-propionic acid] cannot be ordered by IC50: over 1000 nM for the first, over 1000 nM for the second.

Compared with `Cc1c(Oc2cccc(CC(=O)O)c2)c2ccc(Cl)cc2n1Cc1ccccc1` [Compound 1-16, [3-(1-Benzyl-6-chloro-2-methyl-1H-indol-3-yloxy)-phenyl]-acetic acid], `Cc1c(Sc2cccc(C(=O)O)c2)c2ccc(Cl)cc2n1Cc1cccnc1` [Compound 1-21, 3-(6-Chloro-2-methyl-1-pyridin-3-ylmethyl-1H-indol-3-ylsulfanyl)-benzoic acid] is lower in IC50: over 1000 nM for the first, under 300 nM for the second.

Compared with `Cc1c(Sc2cccc(C(=O)O)c2)c2ccc(Cl)cc2n1Cc1ccc(F)cc1` [Compound 1-18, 3-[6-Chloro-1-(4-fluoro-benzyl)-2-methyl-1H-indol-3-ylsulfanyl]-benzoic acid], `Cc1c(Sc2cccc(C(=O)O)c2)c2ccc(Cl)cc2n1Cc1ccncc1` [Compound 1-23, 3-(6-Chloro-2-methyl-1-pyridin-4-ylmethyl-1H-indol-3-ylsulfanyl)-benzoic acid] is lower in IC50: over 1000 nM for the first, under 300 nM for the second.

First: Cc1c(Sc2cccc(C(=O)O)c2)c2ccc(Cl)cc2n1C(C)c1ccccc1 (stereo not shown) [Compound 1-19, 3-[6-Chloro-2-methyl-1-(1-phenyl-ethyl)-1H-indol-3-ylsulfanyl]-benzoic acid]
Second: Cc1c(Sc2cccc(C(=O)O)c2)c2ccc(Cl)cc2n1-c1ccccn1 [Compound 1-31, 3-(6-Chloro-2-methyl-1-pyridin-2-yl-1H-indol-3-ylsulfanyl)-benzoic acid]
The IC50 of the first is higher: over 1000 nM for the first, 300 to 1000 nM for the second. The second is the more potent here.

First: Cc1c(Sc2cccc(C(=O)O)c2)c2ccc(Cl)cc2n1Cc1ccc(C(F)(F)F)nc1 [Compound 1-22, 3-[6-Chloro-2-methyl-1-(6-trifluoromethyl-pyridin-3-ylmethyl)-1H-indol-3-ylsulfanyl]-benzoic acid]
Second: Cc1c(Sc2cccc(C(=O)O)c2)c2ccc(Cl)cc2n1-c1ccc(C(F)(F)F)nc1 [Compound 1-32, 3-[6-Chloro-2-methyl-1-(6-trifluoromethyl-pyridin-3-yl)-1H-indol-3-ylsulfanyl]-benzoic acid]
The IC50 of the first is higher: over 1000 nM for the first, 300 to 1000 nM for the second.

First: Cc1c(Sc2cccc(C(=O)O)c2)c2ccc(Cl)cc2n1Cc1ccccn1 [Compound 1-24, 3-(6-Chloro-2-methyl-1-pyridin-2-ylmethyl-1H-indol-3-ylsulfanyl)-benzoic acid]
Second: Cc1c(Sc2cccc(C(=O)O)c2)c2ccc(Cl)cc2n1-c1cccnc1 [Compound 1-30, 3-(6-Chloro-2-methyl-1-pyridin-3-yl-1H-indol-3-ylsulfanyl)-benzoic acid]
The IC50 of the first is higher: 300 to 1000 nM for the first, under 300 nM for the second.

`COc1c(C)cnc(Cn2c(C)c(Sc3cccc(C(=O)O)c3)c3ccc(Cl)cc32)c1C` [Compound 1-25, 3-[6-Chloro-1-(4-methoxy-3,5-dimethyl-pyridin-2-ylmethyl)-2-methyl-1H-indol-3-ylsulfanyl]-benzoic acid] and `COc1ccc(-n2c(C)c(Sc3cccc(C(=O)O)c3)c3ccc(Cl)cc32)cn1` [Compound 1-33, 3-[6-Chloro-1-(6-methoxy-pyridin-3-yl)-2-methyl-1H-indol-3-ylsulfanyl]-benzoic acid] cannot be ordered by IC50: under 300 nM for the first, under 300 nM for the second.

`Cc1c(Sc2cccc(C(=O)O)c2)c2ccc(Cl)cc2n1-c1ccc(-c2ccccc2)cc1` [Compound 1-27, 3-(1-Biphenyl-4-yl-6-chloro-2-methyl-1H-indol-3-ylsulfanyl)-benzoic acid] and `Cc1c(Sc2cccc(C(=O)O)c2)c2ccc(Cl)cc2n1-c1cccc(-c2ccccc2)c1` [Compound 1-28, 3-(1-Biphenyl-3-yl-6-chloro-2-methyl-1H-indol-3-ylsulfanyl)-benzoic acid] fall in the same range of IC50: 300 to 1000 nM for the first, 300 to 1000 nM for the second.

`Cc1c(Sc2cccc(C(=O)O)c2)c2ccc(Cl)cc2n1-c1cccc(Cl)c1` [Compound 1-29, 3-[6-Chloro-1-(3-chloro-phenyl)-2-methyl-1H-indol-3-ylsulfanyl]-benzoic acid] and `Cc1ccc(-n2c(C)c(Sc3cccc(C(=O)O)c3)c3ccc(Cl)cc32)cn1` [Compound 1-34, 3-[6-Chloro-2-methyl-1-(6-methyl-pyridin-3-yl)-1H-indol-3-ylsulfanyl]-benzoic acid] cannot be ordered by IC50: under 300 nM for the first, under 300 nM for the second.

First: Cc1c(Sc2cccc(CC(=O)O)c2)c2ccc(Cl)cc2n1-c1cccnc1 [Compound 1-35, [3-(6-Chloro-2-methyl-1-pyridin-3-yl-1H-indol-3-ylsulfanyl)-phenyl]-acetic acid]
Second: COc1ccc(C(=O)O)cc1Sc1c(C)n(-c2cccnc2)c2cc(Cl)ccc12 [Compound 1-40, 3-(6-Chloro-2-methyl-1-pyridin-3-yl-1H-indol-3-ylsulfanyl)-4-methoxy-benzoic acid]
The IC50 of the first is lower: under 300 nM for the first, over 1000 nM for the second. The first is the more potent here.

`CCOc1ccc(-n2c(C)c(Sc3cccc(C(=O)O)c3)c3ccc(Cl)cc32)cn1` [Compound 1-36, 3-[6-Chloro-1-(6-ethoxy-pyridin-3-yl)-2-methyl-1H-indol-3-ylsulfanyl]-benzoic acid] and `COc1cncc(-n2c(C)c(Sc3cccc(C(=O)O)c3)c3ccc(Cl)cc32)c1` [Compound 1-37, 3-[6-Chloro-1-(5-methoxy-pyridin-3-yl)-2-methyl-1H-indol-3-ylsulfanyl]-benzoic acid] cannot be ordered by IC50: under 300 nM for the first, under 300 nM for the second.

First: Cc1c(Sc2cccc(C(=O)O)c2)c2ccc(Cl)cc2n1-c1cncnc1 [Compound 1-38, 3-(6-Chloro-2-methyl-1-pyrimidin-5-yl-1H-indol-3-ylsulfanyl)-benzoic acid]
Second: COc1ccc(C(=O)O)cc1Sc1c(C)n(-c2cnn(C)c2)c2cc(Cl)ccc12 [Compound 1-41, 3-[6-Chloro-2-methyl-1-(1-methyl-1H-pyrazol-4-yl)-1H-indol-3-ylsulfanyl]-4-methoxy-benzoic acid]
The IC50 of the first is lower: under 300 nM for the first, over 1000 nM for the second.
